Measurements as given in paper PMC6586010 (Journal of Clinical Pharmacology, 2018).
Where two headings read alike, the source gives them in different places. Each block holds one molecule with its values, some of them ahead of it.

Assays:
[1] = assay type: in vivo, human; settings: part 1
CYP3A5 = settings: human liver microsomes of CYP3A5*1/*1 (EM) donors; cited from earlier work
HIV‐1 [2] = experiment: Study 1; assay type: in vivo; settings: for subjects who discontinued the study because of lack of efficacy: through week 96, maraviroc
HIV‐1 [3] = settings: 48 weeks, cited from earlier work
HIV = settings: viral inhibition; cited from earlier work
HIV‐1 [4] = settings: study 1; cited from earlier work
[5] = week 48, efavirenz 600 mg once daily + zidovudine/lamivudine, EMs (2 CYP3A5*1 alleles)
[6] = week 48, efavirenz 600 mg once daily + zidovudine/lamivudine, IMs (1 CYP3A5*1 allele)
[7] = week 48, efavirenz 600 mg once daily + zidovudine/lamivudine, PMs (no CYP3A5*1 alleles)
[8] = week 48, efavirenz 600 mg once daily + zidovudine/lamivudine, overall
[9] = week 96, efavirenz 600 mg once daily + zidovudine/lamivudine, EMs (2 CYP3A5*1 alleles)
[10] = week 96, efavirenz 600 mg once daily + zidovudine/lamivudine, IMs (1 CYP3A5*1 allele)
[11] = week 96, efavirenz 600 mg once daily + zidovudine/lamivudine, PMs (no CYP3A5*1 alleles)
[12] = week 96, efavirenz 600 mg once daily + zidovudine/lamivudine, overall
[13] = week 48, maraviroc 300 mg twice daily + zidovudine/lamivudine, EMs (2 CYP3A5*1 alleles)
[14] = week 48, maraviroc 300 mg twice daily + zidovudine/lamivudine, IMs (1 CYP3A5*1 allele)
[15] = week 48, maraviroc 300 mg twice daily + zidovudine/lamivudine, PMs (no CYP3A5*1 alleles)
[16] = week 48, maraviroc 300 mg twice daily + zidovudine/lamivudine, overall
[17] = week 96, maraviroc 300 mg twice daily + zidovudine/lamivudine, EMs (2 CYP3A5*1 alleles)
[18] = week 96, maraviroc 300 mg twice daily + zidovudine/lamivudine, IMs (1 CYP3A5*1 allele)
[19] = week 96, maraviroc 300 mg twice daily + zidovudine/lamivudine, PMs (no CYP3A5*1 alleles)
[20] = week 96, maraviroc 300 mg twice daily + zidovudine/lamivudine, overall

Molecule: Cc1nnc(C(C)C)n1C1C[C@H]2CC[C@@H](C1)N2CC[C@H](NC(=O)[C@H]1CCC(F)(F)[C@H](O)C1)c1ccccc1 (stereo partly drawn) [(1S,3R)-3-hydroxymaraviroc, (1S,3R)‐3‐hydroxymaraviroc]
mean MRAUC12 across all cohorts [1]: comparable
CYP3A5 contribution to the formation of this metabolite (CYP3A5): minimal

Molecule: O=C1Nc2ccc(Cl)cc2[C@@](C#CC2CC2)(C(F)(F)F)O1 [Efavirenz]
Proportion of subjects with HIV-1 RNA <50 copies/mL (HIV‐1 [2]; [5]): 19/30 (63.3) %
Proportion of subjects with HIV-1 RNA <400 copies/mL (HIV‐1 [2]; [5]): 20/30 (66.7) %
Proportion of subjects with HIV-1 RNA <50 copies/mL (HIV‐1 [2]; [6]): 68/96 (70.8) %
Proportion of subjects with HIV-1 RNA <400 copies/mL (HIV‐1 [2]; [6]): 71/96 (74.0) %
Proportion of subjects with HIV-1 RNA <50 copies/mL (HIV‐1 [2]; [7]): 113/164 (68.9) %
Proportion of subjects with HIV-1 RNA <400 copies/mL (HIV‐1 [2]; [7]): 119/164 (72.6) %
Proportion of subjects with HIV-1 RNA <50 copies/mL (HIV‐1 [2]; [8]): 200/290 (69.0) %
Proportion of subjects with HIV-1 RNA <400 copies/mL (HIV‐1 [2]; [8]): 210/290 (72.4) %
Proportion of subjects with HIV-1 RNA <50 copies/mL (HIV‐1 [2]; [9]): 17/30 (56.7) %
Proportion of subjects with HIV-1 RNA <400 copies/mL (HIV‐1 [2]; [9]): 17/30 (56.7) %
Proportion of subjects with HIV-1 RNA <50 copies/mL (HIV‐1 [2]; [10]): 62/96 (64.6) %
Proportion of subjects with HIV-1 RNA <400 copies/mL (HIV‐1 [2]; [10]): 63/96 (65.6) %
Proportion of subjects with HIV-1 RNA <50 copies/mL (HIV‐1 [2]; [11]): 104/164 (63.4) %
Proportion of subjects with HIV-1 RNA <400 copies/mL (HIV‐1 [2]; [11]): 107/164 (65.2) %
Proportion of subjects with HIV-1 RNA <50 copies/mL (HIV‐1 [2]; [12]): 183/290 (63.1) %
Proportion of subjects with HIV-1 RNA <400 copies/mL (HIV‐1 [2]; [12]): 187/290 (64.5) %

Molecule: CC(C)c1nnc(CO)n1C1C[C@H]2CC[C@@H](C1)N2CC[C@H](NC(=O)C1CCC(F)(F)CC1)c1ccccc1 (some centres unmarked) [hydroxymethylmaraviroc]
CYP3A5 contribution to the formation of this metabolite (CYP3A5): 1%

mean MRAUC12 among black IMs and PMs and white PMs [1]: comparable
Molecule: (1R,2R)‐2‐hydroxymaraviroc [(1R,2R)-2-hydroxymaraviroc]
CYP3A5 contribution to the formation of this metabolite (CYP3A5): minimal

mean MRAUC12 across all cohorts [1]: comparable
Molecule: (1S,3S)‐3‐hydroxymaraviroc [(1S,3S)-3-hydroxymaraviroc]
CYP3A5 contribution to the formation of this metabolite (CYP3A5): minimal

Molecule: Maraviroc
subjects who discontinued the study because of lack of efficacy (HIV‐1 [2]; EMs (4/43)): 9.3%
subjects who discontinued the study because of lack of efficacy (HIV‐1 [2]; IMs (8/85)): 9.4%
subjects who discontinued the study because of lack of efficacy (HIV‐1 [2]; PMs (25/175)): 14.3%
Proportion of subjects with HIV-1 RNA <50 copies/mL (HIV‐1 [2]; [13]): 30/43 (69.8) %
Proportion of subjects with HIV-1 RNA <400 copies/mL (HIV‐1 [2]; [13]): 32/43 (74.4) %
Proportion of subjects with HIV-1 RNA <50 copies/mL (HIV‐1 [2]; [14]): 53/85 (62.4) %
Proportion of subjects with HIV-1 RNA <400 copies/mL (HIV‐1 [2]; [14]): 61/85 (71.8) %
Proportion of subjects with HIV-1 RNA <50 copies/mL (HIV‐1 [2]; [15]): 126/175 (72.0) %
Proportion of subjects with HIV-1 RNA <400 copies/mL (HIV‐1 [2]; [15]): 132/175 (75.4) %
Proportion of subjects with HIV-1 RNA <50 copies/mL (HIV‐1 [2]; [16]): 209/303 (69.0) %
Proportion of subjects with HIV-1 RNA <400 copies/mL (HIV‐1 [2]; [16]): 225/303 (74.3) %
Proportion of subjects with HIV-1 RNA <50 copies/mL (HIV‐1 [2]; [17]): 23/43 (53.5) %
Proportion of subjects with HIV-1 RNA <400 copies/mL (HIV‐1 [2]; [17]): 26/43 (60.5) %
Proportion of subjects with HIV-1 RNA <50 copies/mL (HIV‐1 [2]; [18]): 47/85 (55.3) %
Proportion of subjects with HIV-1 RNA <400 copies/mL (HIV‐1 [2]; [18]): 52/85 (61.2) %
Proportion of subjects with HIV-1 RNA <50 copies/mL (HIV‐1 [2]; [19]): 109/175 (62.3) %
Proportion of subjects with HIV-1 RNA <400 copies/mL (HIV‐1 [2]; [19]): 117/175 (66.9) %
Proportion of subjects with HIV-1 RNA <50 copies/mL (HIV‐1 [2]; [20]): 179/303 (59.1) %
Proportion of subjects with HIV-1 RNA <400 copies/mL (HIV‐1 [2]; [20]): 195/303 (64.4) %
proportions of subjects with HIV-1 RNA <50 and <400 copies/mL among all 3 CYP3A5 genotypes (HIV‐1 [2]; weeks 48 and 96): comparable
blacks with viral load <50 copies/mL (HIV‐1 [3]; once-daily maraviroc group): 28%
blacks with viral load <50 copies/mL (HIV‐1 [3]; twice-daily maraviroc group): 26%
in vivo concentration for 50% inhibition (HIV): ~8 ng/mL
Cavg associated with near-maximal virologic efficacy (HIV‐1 [4]): 75 ng/mL
